The record followed here is patent publication US3963707A, “Novel N-nitroso compounds, compositions containing such compounds, processes for their preparation and methods of treatment therewith, and novel intermediates” (Aktiebolaget Leo, priority 1973, dated 1976).

Some results are limits rather than exact numbers.

Series [1] concerns Hepatoma AH 130. The experiment in a line: in vivo. Further details: species or system SPF Wistar rats. The procedure, abridged:
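Therapeutic index (LD50/ED50) was derived from tumour weight against controls at day-8 sacrifice, with ED50 the dose giving 50% tumour reduction. Rats (SPF Wistar) bore 5 × 10^6 hepatoma cells implanted intraperitoneally. A single i.p. injection followed on the day after implantation.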

Series [2] has as its system Walker carcinosarcoma 256. The series is described as follows: Walker carcinosarcoma 256 test. In kind it is in vivo, Sprague Dawley rats. The settings on record: for Lethality: died/used animals. The source says:
(§1) The experimental design and the interpretation of the results have been in accordance with the standards set by the CCNSC (Cancer Chemotherapy Reports, January 1959 and December 1962), and by the DR&D (Cancer Chemotherapy Reports, September 1972, Vol. 3, No. 2).
(§2) The way of administration is by the intraperitoneal route (i.p.) in each case.
Walker carcinosarcoma 256
Experimental animals: Sprague Dawley rats.
Tumour implant: Tumour pieces with 2-4 mm diameter, subcutaneously.
Therapy: Daily injections i.p. for 5 days starting on the day following implantation.
Termination: The animals are killed on the 9th day.
Evaluation: Weights of tumours of test animals are compared with those of control animals. The differences, in per cent of weights of tumours of control animals, give per cent tumour inhibition.
The lethality is given as the number of animals which died in the experiment/the number of animals used in the experiments.

Series [3] relates to Lymphatic leukemia L 1210. The series is described as follows: Lymphatic leukemia L 1210 test. In kind it is in vivo, CDF1 (C3H×DBA/2)F1 mice. The settings on record: dose of 1000 mg/kg, comparative compounds.
Excerpt: as §1, §2
Lymphatic leukemia L 1210
Experimental animals: CDF1 (C3H×DBA/2)F1 mice.
Tumour implant: 10^5 tumour cells i.p.
(§3) Therapy: One injection i.p. on the day following implantation.
Evaluation: a) The survival time of the test animals (t) expressed as the percentage of that of control animals (c).
b. Weight change in the test animals (T) compared with that of the control animals (c) up to the 5th day.
c. The mortality rate must not exceed 35% in the test animals on the 5th day of therapy.

The subject of series [4] is Ehrlich ascites tumour, ELD hyperdiploid (46 chromosomes). The experiment in a line: Ehrlich ascites tumour test (LD50, ED50, therapeutic index). Type of series: in vivo, SPF NMRI mice. Particulars: additional compounds, result in words.
Excerpt: The high activity against tumours is further illustrated in these experiments by comparisons with known antitumour agents used in the therapy. The therapeutic indexes (T.I.), i.e. the ratios LD50/ED50, are in all comparisons much more favourable with the compounds of the present invention.
LD50 is the dose that caused a 50 percent lethality of the animals, ED50 is the dose that caused a 50 percent reduction of tumour size.
as §1, §2
Ehrlich ascites tumour, ELD hyperdiploid (46 chromosomes)
Experimental animals: SPF NMRI mice.
Tumour implant: 2 × 10^6 tumour cells i.p.
as §3
Termination: The animals are killed on the 8th day.
Evaluation: Weights of tumours of test animals compared with those of control animals.

The mark [5] stands for this setting: doses 1 × 250, 1 × 500 and 1 × 1000 mg/kg respectively.
Setting [6] is: additional compounds, result in words.

In the case of `CCN(N=O)C(=O)O[C@H]1CC[C@@]2(C)C(=CC[C@@H]3[C@@H]2CC[C@]2(C)C(=O)CC[C@@H]32)C1` [dehydroepiandrosterone-3β-N-ethyl-N-nitroso carbamate, reference compound], the anti-tumor activity entry in series [1] (setting [5]) was “inactive”. In series [2] (5×500 mg/kg i.p.), the Tumour inhibition % stood at 0% and the Lethality is 1/8. In series [3], the “effect on L 1210” value is reported as “without effect”.

For the molecule `CN(CCCl)C(=O)O[C@H]1CC[C@@]2(C)C(=CC[C@@H]3[C@@H]2CC[C@]2(C)C(=O)CC[C@@H]32)C1` [dehydroepiandrosterone-3β-N-(2-chloroethyl)-N-methyl carbamate, reference compound], the anti-tumor activity entry in series [1] (setting [5]) is “inactive”. Besides, in series [2] (5×500 mg/kg i.p.), the Tumour inhibition % is given as < 10% and the Lethality is 0/8.

Regarding `C[C@]12CC[C@H](OC(=O)NCCCl)CC1=CC[C@@H]1[C@@H]2CC[C@]2(C)C(=O)CC[C@@H]12` [dehydroepiandrosterone-3β-N-(2-chloroethyl) carbamate, reference compound], in series [1] (setting [5]), the anti-tumor activity entry was “inactive”. In addition, the “effect on L 1210” value in series [3] is reported as “without effect”.

Turning to `CCCCCCC(=O)O[C@H]1CC[C@H]2[C@@H]3CC[C@H]4C[C@H](OC(=O)N(CCCl)N=O)CC[C@]4(C)[C@H]3CC[C@]12C` [androstanediol-3α-N-(2-chloroethyl)-N-nitroso carbamate-17β-oenanthate], the anti-tumor activity result in series [1] (setting [6]) and in series [4] was “exhibit anti-tumor activity” in each case.

As for `C[C@]12CCC(=O)C[C@@H]1CC[C@@H]1[C@@H]2CC[C@]2(C)[C@@H](OC(=O)N(C(=O)N(CCCl)N=O)C3CCCCC3)CC[C@@H]12` [dihydrotestosteron-17β-/N^2-cyclohexyl-N^4-(2-chloroethyl)-N^4-nitroso allophanate/], the anti-tumor activity result in series [1] (setting [6]) and in series [4] was “exhibit anti-tumor activity” each time.

For `C#C[C@]1(OC(=O)N(CCCl)N=O)CC[C@H]2[C@@H]3CCC4=C(CCC(=O)C4)[C@H]3CC[C@@]21C` [norethynodrel-17β-N-(2-chloroethyl)-N-nitroso carbamate], the anti-tumor activity result in series [1] (setting [6]) and in series [4] was “exhibit anti-tumor activity” each time.

Consider `C[C@]12CC[C@H](OC(=O)N(CCCBr)N=O)CC1=CC[C@@H]1[C@@H]2CC[C@]2(C)C(=O)CC[C@@H]12` [dehydroepiandrosterone - 3β-N-(3-bromopropyl)-N-nitroso carbamate], for which, in series [2] (5×125 mg/kg i.p.), the Tumour inhibition % turned out to be 39% and the Lethality is 0/8. Also, in series [4], the anti-tumor activity result is “exhibit anti-tumor activity”.

Consider `C#C[C@]1(OC(=O)N(CCCl)C(=O)N(CCCl)N=O)CC[C@H]2[C@@H]3CCC4=CC(=O)CC[C@@H]4[C@H]3CC[C@@]21C` [17α-ethynyl-19-nortestosterone-17β-/N^2,N^4-bis (2-chloroethyl)-N^4-nitroso allophanate/], for which the anti-tumor activity entry in series [1] (setting [6]) and in series [4] was “exhibit anti-tumor activity” throughout.

For `CC(=O)Oc1ccc2c(c1)CC[C@@H]1[C@@H]2CC[C@@]2(C)[C@H]1C[C@@H](OC(=O)N(CCCl)N=O)[C@@H]2OC(=O)N(CCCl)N=O` [estriol-3-acetate-16α,17β-bis-/N-(2-chloroethyl)-N-nitroso carbamate/], the anti-tumor activity result in series [1] (setting [6]) and in series [4] was “exhibit anti-tumor activity” throughout.

Regarding `CC(=O)O[C@H]1CC[C@H]2[C@@H]3CCc4cc(OC(=O)N(CCCl)C(=O)N(CCCl)N=O)ccc4[C@H]3CC[C@]12C` [estradiol-17β-acetate-3-/N^2,N^4-bis (2-chloroethyl)-N-^4-nitroso allophanate/], the anti-tumor activity result in series [1] (setting [6]) and in series [4] was “exhibit anti-tumor activity” in each case.
